Data on 24 molecules can be found in paper PMC3873602, “Atheroprotective Vaccination with MHC-II Restricted Peptides from ApoB-100” (Frontiers in Immunology, 2013).

Experiment [1] addresses T1, H-2 I-A^b (Mus musculus, UniProt P14434+P14483).
T1 sequence (P14434 24-256): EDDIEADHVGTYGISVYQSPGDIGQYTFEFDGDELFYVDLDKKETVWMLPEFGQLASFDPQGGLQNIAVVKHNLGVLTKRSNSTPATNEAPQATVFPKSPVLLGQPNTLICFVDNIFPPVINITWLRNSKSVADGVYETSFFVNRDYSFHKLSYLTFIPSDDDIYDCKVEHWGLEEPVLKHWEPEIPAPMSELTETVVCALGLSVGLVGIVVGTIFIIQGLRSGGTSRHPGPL
T1 sequence (P14483 28-265): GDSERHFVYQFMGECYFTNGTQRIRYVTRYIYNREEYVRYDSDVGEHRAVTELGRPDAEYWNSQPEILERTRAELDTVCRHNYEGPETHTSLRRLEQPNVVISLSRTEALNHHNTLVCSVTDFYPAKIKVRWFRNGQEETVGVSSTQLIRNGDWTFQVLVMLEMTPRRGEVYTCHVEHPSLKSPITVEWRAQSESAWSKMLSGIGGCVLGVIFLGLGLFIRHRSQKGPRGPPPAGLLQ
Nature of the experiment: I-A^b binding affinity, competitive inhibition assay with purified MHC and radio-labeled ligand. How it is done:
We measured I-A^b binding affinity using a classical competitive inhibition assay utilizing purified MHC and high affinity radio-labeled I-A^b ligands ([39]). Their ability to displace the radio-labeled I-A^b ligand was measured, and an inhibitory concentration required to displace 50% of the radio-labeled ligand (IC50) was determined.
A peptide can only be recognized by a CD4^+ helper T-cell if it is bound to MHC class II. Because Apoe^−/− mice are on a C57B/6 background, candidate epitopes must be able to bind to the Class II allele, I-A^b. Previously, it has been shown that I-A^b binding motifs can be predicted using algorithms based on the number of anchor residues and hydrophobicity ([36]–[38]). […] The binding affinity is reflected by the amount of peptide, in […], needed to inhibit binding of a standardized radio-labeled peptide by 50% (the IC50) ([39]).

The target of experiment [2] is T1, H-2 I-A^b. As to conditions: known T-cell epitope for comparison; cited from earlier work. From the text: Because Apoe^−/− mice are on a C57B/6 background, candidate epitopes must be able to bind to the Class II allele, I-A^b. Previously, it has been shown that I-A^b binding motifs can be predicted using algorithms based on the number of anchor residues and hydrophobicity ([36]–[38]).

The test system of experiment [3] is mice. As to conditions: human ApoB-100 B-cell epitope; cited from earlier work. From the text:
Several studies have reported a protective effect of vaccination with LDL, or ox-LDL, on the development of atherosclerotic plaque ([23]–[25]). However, the mechanism by which these immunizations convey atheroprotection is an ongoing area of research. […] This was initially a promising hypothesis which subsequently led to the search for atheroprotective B-cell (antibody) epitopes. The discovery of such epitopes was first reported by ...

In experiment [4] the target is I-Ab (Mus musculus, UniProt P14434+P14483). As to conditions: MHC Class II allele of Apoe^−/− and LDL-R^−/− mice; cited from earlier work. From the text:
More recently, researchers have sought to describe the changes in cellular (rather than humoral) immunity that may result from immunization with B-cell epitopes from ApoB-100. Several recent papers have reported an increase in FoxP3^+ expressing TREGS in secondary lymphoid organs [spleens ([32]) and lymph nodes ([33])] after immunization of mice with P210. […] It is not known whether these TREGS are causally related to the atheroprotection that is observed.

Experiment [5] relates to Apoe^−/− mice. Nature of the experiment: Aortic root plaque quantification (Oil Red O) after 1× CFA + 4× IFA immunization. The experiment is classed as in vivo, mouse. As to conditions: female Apoe^−/− mice, 1× CFA + 4× IFA scheme, WD 13 weeks; vs adjuvant-only mice; N = 5. From the text: Eight-week-old female Apoe^−/− mice on C57BL/6 background were purchased from Jackson Laboratories (Bar Harbor, ME, USA). Mice were housed in a specific pathogen free environment and fed chow diet until 10 weeks of age. At 10 weeks of age, mice were started on WD (adjusted calories diet with 42% from fat, Harlan Labs Cat #: TD.88137, CA, USA) and remained on WD until sacrifice at 23 weeks old.
Aortic root sections were examined as follows. Hearts were harvested, placed in Optimal Cutting Temperature medium (OCT, Electron Microscopy Sciences, Hatfield, PA, USA), and frozen at −80°C. Beginning at the first appearance of the tri-leaflet aortic valve, successive 5 μm transverse sections were made for a distance of 100 μm. From these, we analyzed every other section, for a total of 10 sections per root. Sections were then stained with Oil Red O and counter-stained with hematoxylin. Extent of atherosclerosis was then determined as the area involved on each section. To measure en face lesion formation, the whole aorta was carefully cleaned in situ and then the whole aorta pinned out after paraformaldehyde incubation at RT for at least 2 h. Staining for atherosclerotic plaque was performed by incubating samples in Sudan IV. Quantification was performed using ImagePro software (Media Cybernetics, Rockville, MD, USA). […]

Experiment [6] relates to Apoe^−/− mice. Briefly: Antibody titers in plasma by chemiluminescent enzyme immunoassay. The class given is in vivo, mouse. As to conditions: pooled plasma, chemiluminescent ELISA, 1:250 dilution. How it is done:
Antibody titers in plasma were determined by chemiluminescent enzyme immunoassay as previously described ([41]). In brief, white “U” bottom plates (Thermo Lab systems, USA) were coated with various antigens at 5 μg/mL in PBS for overnight incubation. Following blocking with 1% BSA-TBS serum was added in increasing dilutions and incubated at RT for 90 min. Bound antibodies levels were detected using appropriate alkaline phosphatase-conjugated secondary antibodies and a 50% aqueous solution of LumiPhos 530 (Lumigen, USA). Data are expressed as relative light units counted per 100 ms (RLU/100 ms).

Experiment [7] concerns the target H-2 I-A^b (mouse). Briefly: radioligand binding; competitive inhibition assay: peptides displace a high affinity radio-labeled I-A^b ligand from purified MHC; (label) < (MHC) and IC50 ≥ (MHC), so that IC50 values approximate the true Kd.
[8] abbreviates: Table 2, ApoB3501–3516- and ApoB978–993-related overlapping peptides, read-out: H-2 I-Ab (IC50 nM).
The mark [9] stands for this setting: Table 1, displacement of 50% of radio-labeled I-A^b ligand, purified MHC, IC50 approximates Kd.

“Also recorded” adds a separate entry of the source. Where two headings read alike, the source gives them in different places. Ends that are not written are not given here.

On to `CC(C)C[C@H](NC(=O)[C@H](Cc1ccc(O)cc1)NC(=O)[C@@H](NC(=O)[C@H](CC(N)=O)NC(=O)[C@H](C)NC(=O)[C@H](CCC(=O)O)NC(=O)[C@H](CC(N)=O)NC(=O)[C@H](C)NC(=O)[C@@H](NC(=O)[C@H](CO)NC(=O)CNC(=O)[C@@H](N)CO)C(C)C)C(C)C)C(=O)N[C@@H](CC(N)=O)C(=O)N[C@@H](CO)C(=O)N[C@@H](CCCCN)C(=O)NCC(=O)O`, for which the IC50 (commonly the point on the concentration scale where inhibition reaches its midpoint) in experiment [1] (setting [8]) stood at 172 nM.

As for `CC(C)C[C@H](NC(=O)[C@H](C)NC(=O)[C@H](Cc1ccc(O)cc1)NC(=O)[C@H](CC(C)C)NC(=O)[C@@H](NC(=O)[C@H](C)NC(=O)[C@H](CCCNC(=N)N)NC(=O)[C@@H](N)CO)[C@@H](C)O)C(=O)N[C@@H](CO)C(=O)N[C@@H](Cc1c[nH]cn1)C(=O)N[C@@H](C)C(=O)N[C@H](C(=O)N[C@@H](CC(N)=O)C(=O)N[C@@H](CO)C(=O)N[C@@H](Cc1ccc(O)cc1)C(=O)O)C(C)C`, the half-inhibitory concentration (IC50) in experiment [1] (setting [9]) stood at 1370 nM.

`CC(C)C[C@H](NC(=O)[C@H](Cc1ccccc1)NC(=O)[C@H](CO)NC(=O)[C@@H](N)CO)C(=O)N[C@@H](CO)C(=O)N[C@@H](CCC(N)=O)C(=O)N[C@@H](CCC(=O)O)C(=O)N[C@@H](Cc1ccc(O)cc1)C(=O)N[C@@H](CO)C(=O)NCC(=O)N[C@@H](CO)C(=O)N[C@H](C(=O)N[C@@H](C)C(=O)N[C@@H](CC(N)=O)C(=O)N[C@@H](CCC(=O)O)C(=O)N[C@@H](C)C(=O)O)C(C)C`: the IC50 in experiment [1] (setting [8]) was determined as 6.8 nM.

For the molecule `C[C@H](NC(=O)CNC(=O)[C@@H](NC(=O)[C@@H](N)[C@@H](C)O)[C@@H](C)O)C(=O)N[C@@H](Cc1ccc(O)cc1)C(=O)N[C@@H](CO)C(=O)N[C@@H](CC(N)=O)C(=O)N[C@@H](C)C(=O)N[C@@H](CO)C(=O)N[C@@H](CO)C(=O)N[C@H](C(=O)N[C@@H](CCC(=O)O)C(=O)N[C@@H](CO)C(=O)N[C@@H](C)C(=O)N[C@@H](CO)C(=O)N[C@@H](Cc1ccc(O)cc1)C(=O)O)[C@@H](C)O`, in experiment [1] (setting [8]), the IC50 was 17 nM.

Consider GWYRSPFSRVVHLY [MOG38–51], for which the IC50 in experiment [2] is 354 nM.

In experiment [1] (setting [9]), HLEYVSSELRKSLQV had an IC50 of 22200 nM.

For IALDDAKINFNEKLSQLQTY [Peptide P143], the “atheroprotection after vaccination of mice” value (from here on “atheroprotection”) in experiment [3] is on record as 40–60%.

With KTTKQSFDLSVKAQYKKNKH [Peptide P210], in experiment [4], the “binding to I-Ab” value is “does not bind; also recorded: not to bind to I-Ab”. In addition, the “atheroprotection” value in experiment [3] is given as 40–60%.

Take “MEVGWYRSPFSRVVHLYRNGK [MOG35–55, irrelevant control peptide, myelin oligodendrocyte glycoprotein 35–55]”: the “reduction in aortic sinus (aortic root) plaque development, ORO staining” value in experiment [5] is on record as “no significant decrease”. In addition, the “antibody titers to ApoB3501–3516 or ApoB978–993 in mice immunized with irrelevant peptide” value in experiment [6] is on record as “no antibody titers”. The “IgG (IgG1, IgG2c) response to the immunizing peptide” value in experiment [6] (vs 1× CFA + 4× IFA group) was “predominantly IgG2c response”.

Molecule NNYALFLSPRAQQAS came in with an IC50 in experiment [1] (setting [9]) of 1300 nM.

Regarding NVYLNSKGTRSSVRLQ, the IC50 in experiment [1] (setting [8]) is 907 nM.

On to SFTKGNIKSSFLSQEY, for which the IC50 in experiment [1] (setting [8]) came out at 1170 nM.

On to SSTESASYYPLTGDTR, for which, in experiment [1] (setting [8]), the IC50 is 1260 nM.

In the case of TRFKHLRKYTYNYEAESSS [Peptide P2], in experiment [3], the “atheroprotection” value is listed as 40–60%.

With YENFAASNKLDVTFS, the “H-2 I-A^b (IC50 nM)” value in experiment [1] (setting [9]) is recorded as “∞”.

B1: ApoB_(978–993)-related peptide, position 985, 16 residues (peptide)
peptide: SSTESASYYPLTGDTR
As to B1, in experiment [7], the IC50 turned out to be 1260 nM.

B2: ApoB_(978–993)-related peptide, position 977, 16 residues (peptide)
peptide: TTGAYSNASSTESASY
Molecule B2 yielded a half-inhibitory concentration (IC50) in experiment [7] of 17 nM.

B3: mouse ApoB-100 peptide 4505–4520 (peptide)
peptide: NNYALFLSPRAQQAS
In experiment [7], B3 gave an IC50 of 1300 nM.

B4: ApoB_(3501–3516)-related peptide, position 3497, 16 residues (peptide)
peptide: SSFLSQEYSGSVANEA
In turn, B4 yielded an IC50 in experiment [7] of 6.8 nM.

B5: mouse ApoB-100 peptide 4054–4069 (peptide)
peptide: HLEYVSSELRKSLQV
B5 showed an IC50 in experiment [7] of 22200 nM.

B6: ApoB_(3501–3516)-related peptide, position 3505, 16 residues (peptide)
peptide: SGSVANEANVYLNSKG
Molecule B6 showed an IC50 in experiment [7] of 172 nM.

B7: ApoB_(3501–3516)-related peptide, position 3489, 16 residues (peptide)
peptide: SFTKGNIKSSFLSQEY
In the case of B7, in experiment [7], the IC50 came to 1170 nM.

B8: ApoB_(3501–3516)-related peptide, position 3513, 16 residues (peptide)
peptide: NVYLNSKGTRSSVRLQ
Regarding B8, the IC50 in experiment [7] came to 907 nM.

B9: mouse ApoB-100 peptide 438–453 (peptide)
peptide: SRATLYALSHAVNSY
B9 returned an IC50 in experiment [7] of 1370 nM.
